11 molecules from US12344610B2, “APOL1 inhibitors and methods of use” (Maze Therapeutics, Inc., priority 2022, dated 2025) can be followed below.

One may read the EC50 as the midpoint of the concentration-response curve.

The subject of assay [1] is HEK293 cells overexpressing APOL1 G2. The experiment in a line: APOL1 G2 HEK293 cell rescue assay (reversal of cell death caused by overexpression of APOL1). The class given is cell-based. The note with it: Homo sapiens, HEK293, HEK293 overexpressing APOL1 G2; geometric mean of at least 2 assay runs; † = single assay run. The gist of the method: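 Each compound tested in duplicate wells on one plate per run, with values usually the geometric mean across at least two runs on different days, occasionally from one run only. Read-out: concentration giving half-maximal rescue of APOL1 G2 overexpression-induced death of HEK293 cells.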

Assay [2] concerns Trypanosoma brucei Lister 427 VSG221 with APOL1 G1 recombinant protein. The experiment in a line: APOL1 G1 trypanosome cell rescue assay (Example B5). The format is cell-based. The note with it: Trypanosoma brucei, 20 h, read-out: APOL1 G1 Trypanosome Rescue EC50, Trypanosoma brucei Lister 427 VSG221 with APOL1 G1 recombinant protein, 20 hours, CellTiter-Glo; geometric mean of at least 2 assay runs; † = single assay run. In outline: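 Recombinant APOL1 protein, dispensed from a 2 μg/mL stock, and 250 T. brucei per well were co-incubated with test compound (0.4% DMSO) for 20 h. Viability: CellTiter-Glo luminescence.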
Background: ATP-based viability assays read luminescence as a measure of living cells.

Consider `CS(=O)(=O)c1ccc(OCCN2CCC3(CC2)C(=O)N(CCO)c2ccc(Br)cc23)cc1` [Compound 24, 5-bromo-1-(2-hydroxyethyl)-1′-[2-(4-methanesulfonylphenoxy)ethyl]-1,2-dihydrospiro[indole-3,4′-piperidin]-2-one], for which the concentration for a half-maximal effect (EC50) stood at 240 nM in assay [1] and 759 nM in assay [2].

As to `COCCN1C(=O)C2(CCN(CCOc3ccc(S(C)(=O)=O)cc3)CC2)c2cc(C#N)ccc21` [Compound 25, 1′-[2-(4-methanesulfonylphenoxy)ethyl]-1-(2-methoxyethyl)-2-oxo-1,2-dihydrospiro[indole-3,4′-piperidine]-5-carbonitrile], the values for the EC50 in assay [1] and in assay [2] were 1310 nM and above 4000 nM, respectively.

`CS(=O)(=O)c1ccc(OCCN2CCCC3(CC2)C(=O)Nc2ccccc23)cc1` (stereo not shown) [Compound 26, 1-(2-(4-(methylsulfonyl)phenoxy)ethyl)spiro[azepane-4,3′-indolin]-2′-one]: the figures for the EC50 in assay [1] and in assay [2] were 1760 nM and above 4000 nM, respectively.

Take `CN1C(=O)CCc2cc(OCCN3CCC4(CC3)C(=O)Nc3ccc(Cl)cc34)ccc21` [Compound 27, 5-chloro-1′-[2-[(1-methyl-2-oxo-3,4-dihydroquinolin-6-yl)oxy]ethyl]spiro[indoline-3,4′-piperidine]-2-one]: the values for the concentration for a half-maximal effect (EC50) in assay [1] and in assay [2] were 62 nM and 269 nM, respectively.

`O=C1CCc2cc(OCCN3CCC4(CC3)C(=O)Nc3ccc(Cl)cc34)cnc2N1CCO` [Compound 192, 5-chloro-1′-(2-{[8-(2-hydroxyethyl)-7-oxo-5,6,7,8-tetrahydro-1,8-naphthyridin-3-yl]oxy}ethyl)-1,2-dihydrospiro[indole-3,4′-piperidin]-2-one]: the figures for the EC50 in assay [1] and in assay [2] were 41.1 nM and 142 nM, respectively.

`CC(=O)N(C)CCS(=O)(=O)c1ccc(OCCN2CCC3(CC2)C(=O)Nc2ccc(Cl)cc23)cc1` [Compound 193, N-{2-[4-(2-{5-chloro-2-oxo-1,2-dihydrosiro[indole-3,4′-piperidin]-1′-yl}ethoxy)benzenesulfonyl]ethyl}-N-methylacetamide]: the EC50 is 155 nM in assay [1] and 288 nM in assay [2].

Take `CS(=O)(=O)C1(c2ccc(OCCN3CCC4(CC3)C(=O)Nc3ccc(Cl)cc34)cc2)COC1` [Compound 195, 5-chloro-1′-{2-[4-(3-methanesulfonyloxetan-3-yl)phenoxy]ethyl}-1,2-dihydrospiro[indole-3,4′-piperidin]-2-one]: the EC50 in assay [1] came out at 39.4 nM; in assay [2], 74.4 nM.

Consider `O=C1Nc2ccc(Cl)cc2C12CCN(CCOc1ccc3c(c1)CCS3(=O)=O)CC2` [Compound 196, 5-(2-{5-chloro-2-oxo-1,2-dihydrospiro[indole-3,4′-piperidin]-1′-yl}ethoxy)-2,3-dihydro-1λ^6-benzothiophene-1,1-dione], for which the EC50 was 91.9 nM in assay [1] and 185 nM in assay [2].

As for `CS(=O)(=O)c1ccc(OCCN2CCC3(CC2)C(=O)Nc2ccc(Cl)cc23)cc1C(F)F` [Compound 197, 5-chloro-1′-{2-[3-(difluoromethyl)-4-methanesulfonylphenoxy]ethyl}-1,2-dihydrospiro[indole-3,4′-piperidin]-2-one], the concentration for a half-maximal effect (EC50) in assay [1] is 32.3 nM; in assay [2] it was 193 nM.

With `O=C1Nc2ccc(Cl)cc2C12CCN(CCOc1ccc(S(=O)(=O)CCO)cc1)CC2` [Compound 198, 5-chloro-1′-{2-[4-(2-hydroxyethanesulfonyl)phenoxy)ethyl}-1,2-dihydrospiro[indole-3,4′-piperidin]-2-one], the half-maximal effective concentration (EC50) came out at 63.1 nM in assay [1] and 142 nM in assay [2].

As to `CS(=O)(=O)Nc1ccc(OCCN2CCC3(CC2)C(=O)Nc2ccc(Cl)cc23)cc1` [Compound 214, N-[4-(2-{5-chloro-2-oxo-1,2-dihydrospiro[indole-3,4′-piperidin]-1′-yl}ethoxy)phenyl]methanesulfonamide], the concentration for a half-maximal effect (EC50) was determined as 79 nM in assay [1] and 430 nM in assay [2].
